Activity calls are given as the source filed them. The rule behind the calls is not given here. Where a SMILES comes first, the peptide text is derived from it. Bridges are numbered along the chain shown (N, C = ends). [ ]: non-standard residue; d: D form. The star is where a group is joined. Ileψ(thiazoline)Cys = CC[C@H](C)[C@H](N)C1=N[C@H](C(=O)*)CS1; dOrn = NCCC[C@@H](N)C(=O)O

Test [1] concerns Escherichia coli. Put plainly: Antibacterial activity against Escherichia coli BAS849 mutant at 30 ug after 18 hrs by agar diffusion test. Format: functional. The settings on record: read-out: IZ.
In test [2] the test system is Staphylococcus aureus. Put plainly: Antibacterial activity against methicillin-resistant Staphylococcus aureus at 200 ug after 18 hrs by agar diffusion test. In kind it is functional. The note with it: for zone of inhibition at 200 µg/disc: read-out: IZ.
The test system of test [3] is Staphylococcus aureus. Put plainly: Antibacterial activity against methicillin-susceptible Staphylococcus aureus at 200 ug after 18 hrs by agar diffusion test. Format: functional. The settings on record: for zone of inhibition at 200 µg/disc: read-out: IZ.
In test [4] the test system is Enterococcus faecium. In words: Antibacterial activity against vancomycin-resistant Enterococcus faecium at 200 ug after 18 hrs by agar diffusion test. In kind it is functional. The settings on record: for zone of inhibition at 200 µg/disc: read-out: IZ.
The subject of test [5] is Escherichia coli. In words: Antibacterial activity against Escherichia coli BAS849 mutant at 200 ug after 18 hrs by agar diffusion test. The settings on record: for zone of inhibition at 200 µg/disc: read-out: IZ. In kind it is functional.
The subject of the next test is Candida albicans. Put plainly: Antimicrobial activity against Candida albicans at 200 ug after 18 hrs by agar diffusion test. In kind it is functional, organism-based.
Test [6] concerns Enterococcus faecium. In words: Antibacterial activity against vancomycin-resistant Enterococcus faecium at 10 ug after 18 hrs by agar diffusion test. The settings on record: read-out: IZ. Format: functional.
For test [7], the system named is Staphylococcus aureus. Put plainly: Antibacterial activity against methicillin-resistant Staphylococcus aureus at 30 ug after 18 hrs by agar diffusion test. Format: functional. The note with it: read-out: IZ.
Test [8] has as its system Staphylococcus aureus. Put plainly: Antibacterial activity against methicillin-susceptible Staphylococcus aureus at 30 ug after 18 hrs by agar diffusion test. In kind it is functional. The settings on record: read-out: IZ.

With `CO[C@@]1(NC(=O)Cc2cccs2)C(=O)N2C(C(=O)O)=C(COC(N)=O)CS[C@@H]21` [CEFOXITIN], in the test with Escherichia coli [1], the zone of inhibition at 30 µg/disc was 16 mm.
Regarding `CC1=CC[C@]2(C)CC[C@]3(C(=O)O)[C@@H](C(C)C)CC[C@H]3[C@@H]2C=C1`, the outcome with Staphylococcus aureus [2], with Staphylococcus aureus [3], in the test on Enterococcus faecium [4], in the test on Escherichia coli [5] and in the test with Candida albicans was inactive.
In the case of `CC(C)[C@H]1CC[C@H]2[C@@H]3C=C[C@](C)(O)CC[C@]3(C)CC[C@]12C(=O)O`, the result with Staphylococcus aureus [2], in the test with Staphylococcus aureus [3], in the test with Enterococcus faecium [4], with Escherichia coli [5] and in the test on Candida albicans was inactive.
Regarding `CC1=CC(=O)[C@H]2[C@@H]3CC[C@H](C(C)C)[C@@]3(C(=O)O)CC[C@@]2(C)C=C1`, the zone of inhibition at 200 µg/disc in the test with Staphylococcus aureus [2], with Staphylococcus aureus [3], with Enterococcus faecium [4] and in the test on Escherichia coli [5] was 8 mm in each case. Besides, the outcome in the test on Candida albicans was inactive.
For the compound `CC[C@H](C)[C@H](N)C1=N[C@H](C(=O)N[C@@H](CC(C)C)C(=O)N[C@H](CCC(=O)O)C(=O)N[C@H](C(=O)N[C@H]2CCCCNC(=O)[C@H](CC(N)=O)NC(=O)[C@@H](CC(=O)O)NC(=O)[C@H](Cc3cnc[nH]3)NC(=O)[C@@H](Cc3ccccc3)NC(=O)[C@H]([C@@H](C)CC)NC(=O)[C@@H](CCCN)NC2=O)[C@@H](C)CC)CS1` [BACITRACIN] ({Ileψ(thiazoline)Cys}-L[dE]IK[dOrn]I[dF]H[dD]N; lactam 4-C), in the test with Enterococcus faecium [6], the zone of inhibition at 10 µg/disc was 16 mm.
Consider `CC1=CC(=O)[C@H]2[C@@H]3CC[C@H](C(C)C)[C@@]3(C(=O)O)CC[C@@]2(C)CC1=O`, for which the zone of inhibition at 200 µg/disc in the test with Staphylococcus aureus [2], with Staphylococcus aureus [3], in the test with Enterococcus faecium [4] and in the test with Escherichia coli [5] was 8 mm throughout. The result in the test on Candida albicans was inactive.
Take `CN[C@H](CC(C)C)C(=O)N[C@H]1C(=O)N[C@@H](CC(N)=O)C(=O)N[C@H]2C(=O)N[C@H]3C(=O)N[C@H](C(=O)N[C@H](C(=O)O)c4cc(O)cc(O)c4-c4cc3ccc4O)[C@H](O)c3ccc(c(Cl)c3)Oc3cc2cc(c3O[C@@H]2O[C@H](CO)[C@@H](O)[C@H](O)[C@H]2O[C@H]2C[C@](C)(N)[C@H](O)[C@H](C)O2)Oc2ccc(cc2Cl)[C@H]1O` [VANCOMYCIN]: the zone of inhibition at 30 µg/disc with Staphylococcus aureus [7] and in the test on Staphylococcus aureus [8] was 16 mm in each case.

These data come from ChEMBL document CHEMBL1144115, “Antibacterial diterpenoid acids from Azorella compacta” (1999).
